Data published in ChEMBL document CHEMBL1649450, “In vitro activity of micafungin against planktonic and sessile Candida albicans isolates” (2009).
Converted amounts (≈) assume the structure as drawn. *1 amine or outer side, *2 acyl side, *3 side chain or, on linkers, in order; H or OH if unused. Where a SMILES comes first, the peptide text is derived from it. Bridges are numbered along the chain shown (N, C = ends). [ ]: non-standard residue; d: D form. The star is where a group is joined. hTyr(3S-OH,4S-OH,3'-OSO3H) = N[C@H](C(=O)O)[C@H](O)[C@@H](O)c1ccc(O)c(OS(=O)(=O)O)c1; pTerphenylCO(4''-OnC5H11) = CCCCCOc1ccc(-c2ccc(-c3ccc(C(=O)*)cc3)cc2)cc1; Orn(4R-OH,5R-OH) = O=C([C@H](C[C@@H](O)[C@@H](O)N[*:3])N[*:1])[*:2]; hTyr(3S-OH,4S-OH) = N[C@H](C(=O)O)[C@H](O)[C@@H](O)c1ccc(O)cc1; Pro(3S-OH,4S-Me) = C[C@H]1CN[C@H](C(=O)O)[C@H]1O; X1 = CCCCCOc1ccc(-c2cc(-c3ccc(C(=O)*)cc3)no2)cc1; Gln(3R-OH) = NC(=O)C[C@@H](O)[C@H](N)C(=O)O; Hyp = O=C(O)[C@@H]1C[C@@H](O)CN1

Key:
Type in all cases: functional
Candida albicans [1] = assay: Antimicrobial activity against Candida albicans clinical isolate biofilm by broth microdilution method
Candida albicans [2] = assay: Antimicrobial activity against Candida albicans GDH 2346 sessile cells by microtiter plated based assay
Candida albicans [3] = assay: Antimicrobial activity against Candida albicans clinical isolates planktonic cells by broth microdilution method
Candida albicans [4] = assay: Antimicrobial activity against Candida albicans clinical isolate sessile cells by microtiter plated based assay
Candida albicans [5] = assay: Antimicrobial activity against Candida albicans GDH 2346 planktonic cells by broth microdilution method

MIC (Candida albicans [2]) | MIC50 (Candida albicans [3]) | MIC90 (Candida albicans [3]) | MIC50 (Candida albicans [4]) | MIC90 (Candida albicans [4]) | MIC (Candida albicans [5]) | Compound | MIC90 (Candida albicans [1])
– | – | – | – | – | – | CCCCCOc1ccc(-c2ccc(-c3ccc(C(=O)N[C@H]4C[C@@H](O)[C@@H](O)NC(=O)[C@@H]5[C@@H](O)[C@@H](C)CN5C(=O)[C@H]([C@@H](C)O)NC(=O)[C@H]([C@H](O)[C@@H](O)c5ccc(O)cc5)NC(=O)[C@@H]5C[C@@H](O)CN5C(=O)[C@H]([C@@H](C)O)NC4=O)cc3)cc2)cc1 [ANIDULAFUNGIN] ({pTerphenylCO(4''-OnC5H11)}-[Orn(4R-OH,5R-OH)]T[Hyp][hTyr(3S-OH,4S-OH)]T[Pro(3S-OH,4S-Me)]; lactam 1-C) | ≤ 0.03 µg/mL
– | – | – | – | – | – | CC[C@H](C)C[C@H](C)CCCCCCCCC(=O)N[C@H]1C[C@@H](O)[C@@H](NCCN)NC(=O)[C@@H]2[C@@H](O)CCN2C(=O)[C@H]([C@H](O)CCN)NC(=O)[C@H]([C@H](O)[C@@H](O)c2ccc(O)cc2)NC(=O)[C@@H]2C[C@@H](O)CN2C(=O)[C@H]([C@@H](C)O)NC1=O [CASPOFUNGIN] | 2 µg/mL (≈ 1.83 µM)
0.53 µg/mL (≈ 0.417 µM) | 0.125 µg/mL (≈ 0.0984 µM) | 0.125 µg/mL (≈ 0.0984 µM) | 0.5 µg/mL (≈ 0.394 µM) | 0.5 µg/mL (≈ 0.394 µM) | 0.06 µg/mL (≈ 0.0472 µM) | CCCCCOc1ccc(-c2cc(-c3ccc(C(=O)N[C@H]4C[C@@H](O)[C@@H](O)NC(=O)[C@@H]5[C@@H](O)[C@@H](C)CN5C(=O)[C@H]([C@H](O)CC(N)=O)NC(=O)[C@H]([C@H](O)[C@@H](O)c5ccc(O)c(OS(=O)(=O)O)c5)NC(=O)[C@@H]5C[C@@H](O)CN5C(=O)[C@H]([C@@H](C)O)NC4=O)cc3)no2)cc1 [MICAFUNGIN] (X1-[Orn(4R-OH,5R-OH)]T[Hyp][hTyr(3S-OH,4S-OH,3'-OSO3H)][Gln(3R-OH)][Pro(3S-OH,4S-Me)]; lactam 1-C) | –
